Results on nine molecules are retold here after publication PMC7647111, “Antileishmanial compounds from Connarus suberosus: Metabolomics, isolation and mechanism of action” (PLoS ONE, 2020).

Series [1] concerns L. amazonensis promastigotes. Put plainly: Antiproliferation assay: L. amazonensis promastigotes (72 h), MTT. It is filed as cell-based, Leishmania amazonensis (IFLA/BR/1967/PH8). The note with it: 72 h exposure; for IC50: Leishmania amazonensis. Here is the method: (§1) Leishmania amazonensis promastigotes (IFLA/BR/1967/PH8) for the 24 h exposure test were cultivated in RPMI 1640, supplemented with 20% v/v heat inactivated fetal bovine serum (FBS) and incubated at 26°C until near the end of the log growth phase. Leishmania amazonensis (IFLA/BR/1967/PH8) and L. infantum (MCAN/BR/2008/1112) promastigotes used in the 72 h exposure test were cultivated in Warren’s medium (containing brain heart infusion- BHI plus hemin and folic acid), supplemented with 10% FBS, 0.1% of the antibiotics: 100 UI/mL penicillin G and 0.1 mg/mL streptomycin. Leishmania amazonensis (IFLA/BR/1967/PH8) transfected with the red fluorescent protein (RFP) gene was cultured in M199 medium (containing 0.1 mmol/L adenine, 40 mmol/L hepes, 0.0005% hemin and 0.0002% biotin), supplemented with 10% FBS, and 0.1% of the antibiotic. Parasites were maintained at 25°C in a BOD incubator.
(§2) Extracts and isolated compounds were tested against L. amazonensis promastigotes (IFLA/BR/1967/PH8 strain - 2x10^5 cells/well) and L. infantum promastigotes (MCAN/BR/2008/1112 strain - 3x10^5 cells/well). The samples were solubilized in DMSO (<1%), serially diluted (100 μg/mL to 1.56 μg/mL) and tested in a 96-well plate to obtain a dose-response curve. Miltefosine and DMSO were used as positive and negative controls, respectively. After 72 h, 10 μL of 3-(4,5-dimethylthiazol-2-yl)-2,5-diphenyl tetrazolium bromide (5 mg/mL—MTT, Sigma-Aldrich) solution was added to each well and the plate returned to the incubator for an additional 4 h. To halt the reaction, 100 μL acidified isopropanol was added to each well. Plates were read at 570 nm in a microplate reader (Multiskan MS, LabSystems Oy, Helsinki, Finland).

Series [2] has as its system L. infantum promastigotes. The series can be described thus: Antiproliferation assay: L. infantum promastigotes (72 h), MTT. Conditions: 72 h exposure; for IC50: Leishmania infantum, 72 h. It is filed as cell-based, Leishmania infantum (MCAN/BR/2008/1112). The procedure: as §1, §2
The test system of series [3] is L. amazonensis amastigotes. Put plainly: L. amazonensis amastigotes assay (RFP parasites in peritoneal macrophages). It is filed as cell-based, Leishmania amazonensis (IFLA/BR/1967/PH8). Conditions: for activity against L. amazonensis amastigotes (in words) / IC50: 72 h; for IC50: Leishmania amazonensis, Peritoneal macrophage, intracellular. The procedure: Peritoneal macrophages obtained from BALB/c mice were transferred to a 24-well plate (6x10^5 cells/well) in RPMI 1640 medium supplemented with 10% inactivated FBS and 20 mM L-glutamine, pH 7.2. The plate was incubated at 37°C in 5% CO2 for 24 h. After this period, macrophages were infected with L. amazonensis (IFLA/BR/1967/PH8) transfected with RFP in the stationary growth phase using a ratio 1:10 (macrophages/parasites) at 33°C for 4 h. The non-phagocytosed parasites were subsequently removed by extensive PBS wash, and samples added at non-toxic concentrations, in accordance with the cytotoxicity tests (100 μg/mL to 1.56 μg/mL) to determine the IC50 for the intracellular parasite. After 72 h, the supernatant was removed from the wells and 200 μL of deionized water added to each well to lyse the cell membrane. After lysis, the resulting supernatants were transferred to a black 96-well plate. The plate was read in a fluorescence spectrophotometer (FLx800, BioTek Instruments, Inc., Winooski, VT, USA) with 540/600 nm of excitation/emission. Wells containing macrophages infected with L. amazonensis (RFP) […] only were used as negative controls.

The nature of a further series: Cytotoxicity assay (MTT). Conditions: female, BALB/c, mouse, 72 h exposure. It is filed as cell-based, BALB/c mice. The procedure: Female BALB/c mice pre-inoculated with 3% thioglycollate medium were used to obtain macrophages from the peritoneal cavity. Peritoneal exudate was collected 72 h post-inoculation using cold Hank´s Balanced Salt Solution and the assay performed as previously reported. Briefly, peritoneal macrophages in RPMI 1640 medium were transferred to a 96-well plate (2x10^5 cells/well) and incubated at 37°C in 5% CO2 for 24 h to allow adhesion. Samples were serially diluted (100 μg/mL to 0.78 μg/mL), added to the plate with the cells and incubated under the same conditions for 72 h. MTT (10 μL/well) was subsequently added and the plates re-incubated for a further 2 h. To halt the reaction, 100 μL of acidified isopropanol was added to each well. The plate was then read at 570 nm in a microplate reader (Multiskan MS, LabSystems Oy, Helsinki, Finland).

The subject of series [4] is L. amazonensis promastigotes. The note with it: cited from earlier work.
Series [5] concerns L. amazonensis axenic amastigotes. Details: method as in PMID 18849135. The note with it: cited from earlier work.
Series [6] relates to L. amazonensis promastigotes. Put plainly: Antiproliferation assay: L. amazonensis promastigotes (24 h), resazurin. It is filed as cell-based, Leishmania amazonensis (IFLA/BR/1967/PH8). Conditions: Leishmania amazonensis, after 24 h, read-out: IC50 (CI95). Here is the method:
as §1
Extracts and fractions were tested against L. amazonensis (IFLA/BR/1967/PH8) promastigote cells in a 96-well plate at a concentration of 10^6 cells/well. Each sample was solubilized in DMSO (<1%) since it was not soluble directly in the medium. Extracts were tested at 100 μg/mL and 50 μg/mL. […] Plates were read at 570 nm and 595 nm in a microplate reader (BiochromAsys UVM 340) after cell lysis with sodium dodecyl sulfate (SDS). Viability was calculated based on the equations described by Kulshrestha.
For orientation: Resazurin is reduced to fluorescent resorufin, in cell work by metabolically active cells.

For series [7], the system named is L. amazonensis promastigotes. Put plainly: Mitochondrial membrane potential (MitoTracker). Format: cell-based, Leishmania amazonensis. Conditions: 24 h; 2 at 33.8 μM, 3 at 11.4 μM; FCCP 5.0 μM for 10 min. The procedure:
After 24 h of incubation at 25°C, the parasite concentration was adjusted to 5x10^6 cells/mL and stained with 500 nM MitoTracker (Invitrogen, Eugene, OR, USA) in the dark for 40 min at 37°C. After washing twice with PBS, samples were transferred in triplicate to a black 96-well plate, and fluorescence measured in a spectrofluorometer (FLx800, BioTek Instruments, Inc., Winooski, VT, USA) at 540/600 nm excitation/emission. […] Louis, MO, USA) for 10 min were used to obtain maximal mitochondrial depolarization (positive control).

Series [8] deals with L. amazonensis promastigotes. Put plainly: Reactive oxygen species (ROS) detection (H2DCFDA). Format: cell-based, Leishmania amazonensis. The procedure:
Fluorescence intensity was detected using a fluorimetric microplate reader (FLx800, BioTek Instruments, Inc., Winooski, VT, USA), at 485/528 nm excitation/emission. Promastigotes incubated with miltefosine (44.2 μM) were used as a positive control.

The subject of series [9] is L. amazonensis promastigotes. The series can be described thus: Cell membrane integrity (propidium iodide). It is filed as cell-based, Leishmania amazonensis. Conditions: 24 h; 2 at 33.8 μM, 3 at 11.4 μM. Here is the method:
Plates were incubated with propidium iodide (PI) (1.0 μg/mL—Sigma-Aldrich, USA, St. Louis, MO, USA) for 15 min in the dark at RT. Fluorescence was measured using a spectrofluorometer (FLx800, BioTek Instruments, Inc., Winooski, VT, USA) with 540/600 nm excitation/emission. Parasites heated at 65 °C were used as the positive control.

Series [10] deals with L. amazonensis promastigotes. Put plainly: Neutral lipid quantification (Nile Red). It is filed as cell-based, Leishmania amazonensis. The note with it: 24 h; 2 at 33.8 μM, 3 at 11.4 μM. The procedure: After 24 h of exposure, the parasites (1x10^7 cells/well) were stained with 10 μg/mL Nile Red (Sigma-Aldrich, St. Louis, MO, USA) in the dark for 20 min at 25°C. Fluorescence intensity was analysed in a spectrofluorometer (BioTek Instruments, Inc., Winooski, VT, USA) using 485/528 nm excitation/emission.

For a further series, the system named is L. infantum amastigotes. Put plainly: L. infantum amastigotes assay (Giemsa, infection index). It is filed as cell-based, Leishmania infantum. Conditions: Leishmania infantum; intracellular, 72 h. The procedure:
Peritoneal macrophages (6 x 10^5 cells) were plated on round glass coverslips within 24-well plates in RPMI 1640 medium supplemented with FBS and 20 mM L-glutamine, pH 7.2, and incubated for 24 h at 37°C in 5% CO2. Stationary-phase promastigotes (6 x 10^6 cells, at a ratio of 10 parasites per macrophage) were then added to the wells, and cultures incubated for 24 h at 37°C in 5% CO2. Non-internalized parasites were removed by extensive PBS solution washing and infected macrophages subsequently treated with nontoxic concentrations of: compound 3 (6.25 μg/mL to 0.18 μg/mL) or miltefosine (10.0 μg/mL to 0.6 μg/mL, positive control) for 72 h at 37°C in 5% CO2. After compound exposure, cells were fixed with absolute ethanol and stained with Giemsa. A total of 200 macrophages were counted under a light microscope. The infection index was determined by the […] percentage of infected macrophages multiplied by the mean number of amastigotes per macrophage out of 200 macrophages.

One may read the IC50 as the concentration at which inhibition is half-maximal. Broadly, the CC50 is the concentration giving 50% cytotoxicity.

≈ marks a conversion by molar mass, not a printed value. Where “and” joins values, the source holds several entries; their conditions need not be identical. Equal entries are not always repeated. Where two headings read alike, the source gives them in different places.

Consider `CCCCCCCCCCCCCC1=C(O)C(=O)C=C(O)C1=O` [Compound 4, rapanone], for which, in series [1], the “activity against L. amazonensis promastigotes (in words)” value is listed as “inactivity”; the IC50 was 50.4 µg/mL and 169 µM. Also, in series [2], the “Promastigotes IC50 L. infantum” value is 7.17 ± 0.3 µg/mL; the IC50 was 7.2 µg/mL and 24.5 µM. Besides, in series [3], the “activity against L. amazonensis amastigotes (in words)” value is “inactive”; the IC50 was > 3.2 µg/mL and > 10.6 µM. Moreover, the CC50 at 72 h in the series “Cytotoxicity assay (MTT)” (murine peritoneal macrophages) was 2.9 µg/mL and 9.8 µM.
`CCC(C)C(=O)c1c(O)c(CC=C(C)C)c(O)c2c(-c3ccccc3)cc(=O)oc12` (centres unmarked) [mammea A/BB]: the IC50 promastigotes in series [4] was 3 µg/mL (≈ 7.38 µM). The IC50 axenic amastigotes in [5] is 0.88 µg/mL (≈ 2.16 µM).
For `C[C@@H]1[C@H](O)[C@@H](C)/C=C/C=C/C=C/C=C/C=C/C=C/C=C/[C@H](O[C@@H]2O[C@H](C)[C@@H](O)[C@H](N)[C@@H]2O)C[C@@H]2O[C@](O)(C[C@@H](O)C[C@@H](O)[C@H](O)CC[C@@H](O)C[C@@H](O)CC(=O)O[C@H]1C)C[C@H](O)[C@H]2C(=O)O` [Amphotericin B, reference compound], the IC50 in series [6] is less than 7.8 µg/mL.
`CCCCCCCCCCCCCCCC1=C(O)C(=O)C=C(O)C1=O` [Compound 6, suberonone]: in series [1], the “activity against L. amazonensis promastigotes (in words)” value is “not considered active”; the IC50 is 51.9 µg/mL and 149 µM. In [2], the “activity against L. infantum promastigotes (in words)” value is reported as “not considered active”; the IC50 is 37.2 µg/mL and 106 µM. For the same molecule, in [3], the “activity against L. amazonensis amastigotes (in words)” value was “inactive”; the concentration for half-maximal inhibition (IC50) was > 3.2 µg/mL and > 8.9 µM. The CC50 at 72 h in “Cytotoxicity assay (MTT)” (murine peritoneal macrophages) was 4.2 µg/mL and 11.7 µM.
For `CC1(C)C=Cc2c(ccc3c2OCC2c4cc5c(cc4OC32)OCO5)O1` (centres unmarked) [Compound 2, leiocarpin], the IC50 was 11.4 µg/mL and 33.8 µM in series [1]; 15.5 µg/mL and 44.3 µM in series [2]; 7.1 µg/mL and 20.4 µM in [3]. In addition, the “SI (Selectivity Index)” value in series [3] (CC50 macrophages / IC50 L. amazonensis amastigotes) stood at 5.7. Further, in the series “Cytotoxicity assay (MTT)” (murine peritoneal macrophages), the CC50 at 72 h is 39 µg/mL and 116 µM. The “reduction in mitochondrial membrane potential (ΔΨm)” value in series [7] turned out to be 37.6%. The ROS level result in series [8] (24 h, 2 at 33.8 μM, 3 at 11.4 μM) is on record as “no alteration in the ROS level”. Also, the “plasma membrane integrity (PI-positive parasites)” value in series [9] is recorded as “significant increase in the percentage of PI-positive parasites”. The “increase in neutral lipid levels in relation to the untreated control” value in series [10] is 86.9%.
As to `COc1ccc2c(c1)OC1c3ccc4c(c3OCC21)C=CC(C)(C)O4` (centres unmarked) [Compound 1, hemileiocarpin], the IC50 is 20.8 µg/mL and 61.9 µM in series [2]; 10.6 µg/mL and 31.6 µM in series [3]. The CC50 at 72 h in “Cytotoxicity assay (MTT)” (murine peritoneal macrophages) was > 100 µg/mL and > 297 µM.
For the molecule `CCCCCCCCCCCCCCCCOP(=O)([O-])OCC[N+](C)(C)C` [Miltefosine, reference compound], the half-inhibitory concentration (IC50) in series [1] was 9 µg/mL and 22.1 µM; in series [2], 2.6 µg/mL and 6.5 µM; in series [3], 5.2 µg/mL and 12.7 µM; in the series with L. infantum amastigotes it was 3.7 µM. Also, in series [3], the “SI (Selectivity Index)” value came to 10.4. Besides, the “increase in ROS production” value in [8] (miltefosine 44.2 μM, positive control) came out at 162.3%.
As to `CCCCCCCCCCCC1=C(O)C(=O)C=C(O)C1=O` [Compound 5, embelin], the IC50 is 12.5 µg/mL and 38.9 µM in series [1]; 10.7 µg/mL and 33.2 µM in series [2]; > 3.2 µg/mL and > 9.7 µM in series [3]. The “activity against L. amazonensis amastigotes (in words)” value in [3] was “inactive”. In addition, in the series “Cytotoxicity assay (MTT)” (read-out: Cytotoxicity CC50 Murine macrophages), the CC50 at 72 h is 0.9 µg/mL and 2.6 µM.
Consider `N#CC(C#N)=NNc1ccc(OC(F)(F)F)cc1` [FCCP, carbonyl cyanide 4-(trifluoro-methoxyl)phenylhydrazone, reference compound], for which, in series [7], the “reduction in mitochondrial membrane potential (ΔΨm)” value turned out to be 51.6%.
